Data on 22 molecules can be found in ChEMBL document CHEMBL4602710 (ACS Med Chem Lett, 2020).

SMILES strings stand for the structures. In brackets after ≈: the same amount, converted by molar mass.

In data set [1] the target is T1, Tyrosine-protein kinase SYK (Homo sapiens, UniProt P43405). As to the kind of experiment: Inhibition of SYK (unknown origin) using XL665-labeled peptide as substrate in presence of ATP measured after 30 mins by TR-FRET assay.
Data set [2] deals with T1, Tyrosine-protein kinase SYK. As to the kind of experiment: Inhibition of SYK in human Ramos cells assessed as reduction in antihuman IgM F(ab)2-induced phosphorylation of BLNK at Y96 residue preincubated for 1 hr followed by antihuman IgM F(ab)2 stimulation for 5 mins by MSD high bind plate assay. It counts as cell-based.
For data set [3] the target is unchanged. As to the kind of experiment: Inhibition of SYK in human whole blood assessed as reduction in anti-FCepsilonR1 mAb-induced basophil activation by measuring decrease in CD63 surface expression incubated for 60 mins followed by anti-FCepsilonR1 mAb stimulation for 20 mins by flow cytometry analysis. It counts as tissue-based.
A short description of data set [4]: Solubility of compound at pH 7.4. It counts as physicochemical. Particulars: buffer.
A short description of data set [5]: Solubility of compound at pH 2. In kind it is physicochemical. Particulars: buffer.
Data set [6] can be described thus: Clearance in human liver microsomes. In kind it is ADME, Microsome.
Data set [7] is described as follows: Distribution coefficient, logD of compound. It counts as physicochemical. The settings on record: octanol/water.

What is called IC50 is the point on the concentration scale where inhibition reaches its midpoint. As a reminder, the EC50 is the concentration needed to bring the measured effect to its halfway point. As a reminder, the solubility is the dissolved amount per volume that the medium holds. A higher solubility goes with much dissolved substance. With `Nc1cncc(-c2cn3ccnc3c(Nc3ccc(N4CCN(C5COC5)CC4)cc3)n2)c1`, the concentration for half-maximal inhibition (IC50) in data set [1] was 28.6 nM. For the same molecule, the concentration giving a half-maximal response (EC50) is 162 nM in data set [2] and 196 nM in data set [3]. The solubility in data set [4] was determined as 87 µM (≈ 38.5 µg/mL); in data set [5], 98 µM (≈ 43.4 µg/mL). Also, in data set [6], the CLhep predicted was 4.33 mL/min/kg.
Broadly, the logD is the decadic logarithm of the distribution of all forms, ionised or not, between an organic phase and buffer at a given pH. High values mean higher lipophilicity, low ones lower lipophilicity. Consider `CCN1CCN(c2ccc(Nc3nc(-c4ccc5cn[nH]c5c4)cn4ccnc34)cc2)CC1`, for which the IC50 in data set [1] is 0.8 nM. Further, the concentration for a half-maximal effect (EC50) in data set [2] amounted to 36 nM; in data set [3] it was 456 nM. Moreover, the solubility in data set [4] is 10 µM (≈ 4.39 µg/mL); in data set [5], greater than 100 µM. The same molecule had a logD in data set [7] of 1.9 to 2.7. For the same molecule, the CLhep predicted in data set [6] is 3.33 mL/min/kg.
Turning to `c1cn2cc(-c3ccc4c(n3)NCCO4)nc(Nc3ccc(N4CCN(C5COC5)CC4)cc3)c2n1`, in data set [1], the IC50 was 44.1 nM. Further, the values for the EC50 in data set [2] and in data set [3] were 107 nM and 234 nM, respectively. Moreover, the values for the solubility in data set [4] and in data set [5] were 2 µM (≈ 0.969 µg/mL) and 99 µM (≈ 48 µg/mL), respectively. For the same molecule, the CLhep predicted in data set [6] is 4.33 mL/min/kg.
For the molecule `Nc1cccc(-c2cn3ccnc3c(Nc3ccc(N4CCN(C5COC5)CC4)cc3)n2)n1`, in data set [1], the IC50 was 44.3 nM. In addition, the values for the EC50 in data set [2] and in data set [3] were 268 nM and 308 nM, respectively. For the same molecule, the figures for the solubility in data set [4] and in data set [5] were 52 µM (≈ 23 µg/mL) and greater than 100 µM, respectively. For the same molecule, the CLhep predicted in data set [6] was 2.17 mL/min/kg.
With `c1cn2cc(-c3ccc4cn[nH]c4c3)nc(Nc3ccc(N4C[C@H]5CC[C@@H](C4)O5)cc3)c2n1`, the IC50 in data set [1] was found to be 5.3 nM. Besides, the results for the EC50 in data set [2] and in data set [3] were 162 nM and 2330 nM, respectively. Besides, the solubility was less than 1 µM in data set [4] and 24 µM (≈ 10.5 µg/mL) in data set [5]. This molecule also registered a logD in data set [7] of 1.9 to 2.7. Further, the CLhep predicted in data set [6] is 9.5 mL/min/kg.
As for `C[C@@H]1CN(c2ccc(Nc3nc(-c4ccc5cn[nH]c5c4)cn4ccnc34)cc2)C[C@H](C)O1`, the IC50 in data set [1] was determined as 4.9 nM. The EC50 in data set [2] worked out at 45 nM; in data set [3], 885 nM. In addition, the solubility in data set [4] was less than 1 µM; in data set [5] it was 86 µM (≈ 37.8 µg/mL). Further, the logD in data set [7] is 1.9 to 2.7. For the same molecule, the CLhep predicted in data set [6] was 2.5 mL/min/kg.
For the molecule `c1cn2cc(-c3cnc4cc[nH]c4c3)nc(Nc3ccc(N4CCN(C5COC5)CC4)cc3)c2n1`, the IC50 in data set [1] turned out to be 6.9 nM. Moreover, the EC50 amounted to 46 nM in data set [2] and 78 nM in data set [3]. Besides, the figures for the solubility in data set [4] and in data set [5] were 1 µM (≈ 0.467 µg/mL) and greater than 100 µM, respectively. Also, the CLhep predicted in data set [6] is 3.83 mL/min/kg.
For `c1cn2cc(-c3ccc4c(c3)NCCO4)nc(Nc3ccc(N4CCN(C5COC5)CC4)cc3)c2n1`, in data set [1], the IC50 turned out to be 21.5 nM. For the same molecule, the EC50 turned out to be 46 nM in data set [2] and 1230 nM in data set [3]. Besides, the solubility was 29 µM (≈ 14 µg/mL) in data set [4] and greater than 100 µM in data set [5]. Besides, in data set [6], the CLhep predicted is 15.2 mL/min/kg.
In the case of `c1cn2cc(-c3cnc4cn[nH]c4n3)nc(Nc3ccc(N4CCN(C5COC5)CC4)cc3)c2n1`, the IC50 in data set [1] was found to be 3.2 nM. In addition, the EC50 in data set [2] was determined as 37 nM; in data set [3] it was 154 nM. Also, the solubility is 2 µM (≈ 0.937 µg/mL) in data set [4] and greater than 100 µM in data set [5]. The CLhep predicted in data set [6] is 2.33 mL/min/kg.
Regarding `OC1CCN(c2ccc(Nc3nc(-c4ccc5cn[nH]c5c4)cn4ccnc34)cc2)CC1`, the IC50 in data set [1] came out at 1.2 nM. For the same molecule, the results for the EC50 in data set [2] and in data set [3] were 33 nM and 591 nM, respectively. Also, the solubility in data set [4] worked out at 3 µM (≈ 1.28 µg/mL); in data set [5] it was 84 µM (≈ 35.7 µg/mL). The molecule also showed a logD in data set [7] of 1.9 to 2.7. In addition, the CLhep predicted in data set [6] is 4.67 mL/min/kg.
Take `c1cn2cc(-c3ccc4cc[nH]c4c3)nc(Nc3ccc(N4CCN(C5COC5)CC4)cc3)c2n1`: the IC50 in data set [1] was 15.7 nM. The results for the half-maximal effective concentration (EC50) in data set [2] and in data set [3] were 26 nM and 381 nM, respectively. In addition, the values for the solubility in data set [4] and in data set [5] were 15 µM (≈ 6.98 µg/mL) and greater than 100 µM, respectively. The CLhep predicted in data set [6] was 5.17 mL/min/kg.
Turning to `c1cn2cc(-c3ccc4cn[nH]c4c3)nc(Nc3ccc(N4[C@H]5COC[C@@H]4COC5)cc3)c2n1`, the IC50 in data set [1] stood at 13.7 nM. The EC50 in data set [2] was determined as 33 nM; in data set [3], 133 nM. Moreover, the solubility in data set [4] and in data set [5] was less than 1 µM in each case. In data set [7], this molecule yielded a logD of 1.9 to 2.7. In data set [6], the CLhep predicted is 9.83 mL/min/kg.
Take `Nc1cccc(-c2cn3ccnc3c(Nc3ccc(N4CCN(C5COC5)CC4)cc3)n2)c1`: the IC50 in data set [1] was found to be 54.6 nM. Moreover, the half-maximal effective concentration (EC50) in data set [2] came to 220 nM; in data set [3], 939 nM. Further, the solubility is 84 µM (≈ 37.1 µg/mL) in data set [4] and greater than 100 µM in data set [5]. Further, the CLhep predicted in data set [6] is 3.83 mL/min/kg.
For the molecule `c1cn2cc(-c3ccc4cc[nH]c4n3)nc(Nc3ccc(N4CCN(C5COC5)CC4)cc3)c2n1`, in data set [1], the half-inhibitory concentration (IC50) worked out at 11.3 nM. Further, the half-maximal effective concentration (EC50) stood at 18 nM in data set [2] and 128 nM in data set [3]. In addition, the solubility in data set [4] is less than 1 µM; in data set [5], 99 µM (≈ 46.2 µg/mL). In data set [6], the CLhep predicted is 6.33 mL/min/kg.
Take `O=S1(=O)CCN(c2ccc(Nc3nc(-c4ccc5cn[nH]c5c4)cn4ccnc34)cc2)CC1`: the half-inhibitory concentration (IC50) in data set [1] came out at 19.5 nM. The half-maximal effective concentration (EC50) worked out at 33 nM in data set [2] and 1190 nM in data set [3]. The solubility in data set [4] turned out to be 3 µM (≈ 1.38 µg/mL); in data set [5], 26 µM (≈ 11.9 µg/mL). In data set [7], the logD was 1.9 to 2.7. Further, the CLhep predicted in data set [6] is 8.17 mL/min/kg.
Consider `c1cn2cc(-c3ccc4cn[nH]c4c3)nc(Nc3ccc(N4CC5(CCOCC5)C4)cc3)c2n1`, for which the 50% inhibitory concentration (IC50) in data set [1] was determined as 9 nM. The EC50 in data set [2] came out at 82 nM; in data set [3], 2180 nM. Moreover, the solubility was found to be 3 µM (≈ 1.35 µg/mL) in data set [4] and 77 µM (≈ 34.8 µg/mL) in data set [5]. Further, the pH-dependent lipophilicity (logD) in data set [7] lay within 1.9 to 2.7. Also, the CLhep predicted in data set [6] is 4 mL/min/kg.
For the molecule `c1cn2cc(-c3ccc4nc[nH]c4n3)nc(Nc3ccc(N4CCN(C5COC5)CC4)cc3)c2n1`, the IC50 in data set [1] is 31.9 nM. Moreover, the EC50 in data set [2] is 66 nM; in data set [3] it was 89 nM. Besides, the solubility in data set [4] is 90 µM (≈ 42.1 µg/mL); in data set [5], greater than 100 µM. In addition, the CLhep predicted in data set [6] was 2.83 mL/min/kg.
For `c1cn2cc(-c3ccc4cn[nH]c4c3)nc(Nc3ccc(N4CCOCC4)cc3)c2n1` [ENTOSPLETINIB], the solubility in data set [4] is 6 µM (≈ 2.47 µg/mL); in data set [5] it was 13 µM (≈ 5.35 µg/mL). The molecule further gave a logD in data set [7] of 2.5. In addition, the CLhep predicted in data set [6] is 5.17 mL/min/kg.
Take `c1cn2cc(-c3cnc4cn[nH]c4c3)nc(Nc3ccc(N4CCN(C5COC5)CC4)cc3)c2n1`: in data set [1], the IC50 was found to be 2.8 nM. In addition, the EC50 in data set [2] worked out at 13 nM; in data set [3], 47 nM. Further, the solubility in data set [4] is 1 µM (≈ 0.468 µg/mL); in data set [5] it was greater than 100 µM. In addition, in data set [6], the CLhep predicted is 3.17 mL/min/kg.
For the molecule `c1cn2cc(-c3cnc4cc[nH]c4n3)nc(Nc3ccc(N4CCN(C5COC5)CC4)cc3)c2n1`, in data set [1], the IC50 amounted to 1.7 nM. Besides, the EC50 in data set [2] came to 11 nM; in data set [3], 48 nM. In addition, the solubility in data set [4] was 5 µM (≈ 2.34 µg/mL); in data set [5], greater than 100 µM. For the same molecule, the CLhep predicted in data set [6] is 3.33 mL/min/kg.
Turning to `c1cn2cc(-c3cnc4nc[nH]c4n3)nc(Nc3ccc(N4CCN(C5COC5)CC4)cc3)c2n1`, in data set [1], the half-inhibitory concentration (IC50) turned out to be 11.5 nM. Besides, the EC50 in data set [2] was 192 nM. In addition, the solubility in data set [4] was 3 µM (≈ 1.41 µg/mL); in data set [5], greater than 100 µM. In addition, the CLhep predicted in data set [6] is 2.83 mL/min/kg.
Turning to `c1cn2cc(-c3ccc4cn[nH]c4n3)nc(Nc3ccc(N4CCN(C5COC5)CC4)cc3)c2n1`, in data set [1], the IC50 came to 6.7 nM. In addition, the EC50 came to 23 nM in data set [2] and 86 nM in data set [3]. The solubility in data set [4] was 5 µM (≈ 2.34 µg/mL); in data set [5], greater than 100 µM. For the same molecule, the CLhep predicted in data set [6] is 4.67 mL/min/kg.
